Assay results as given in US7528138B2, “Pyrazolo[1,5-a]pyrimidines useful as inhibitors of protein kinases” (Vertex Pharmaceuticals Incorporated, priority 2004, dated 2009).

Legend:
Itk = molecular target: T1, Itk (Homo sapiens, UniProt Q08881); assay: ITK Inhibition Assay (Radiometric), radioactive-phosphate incorporation; format: biochemical; details: enzyme inhibition data (Ki), Table 11; radiometric or UV assay not stated
T1 sequence (Q08881 1-620): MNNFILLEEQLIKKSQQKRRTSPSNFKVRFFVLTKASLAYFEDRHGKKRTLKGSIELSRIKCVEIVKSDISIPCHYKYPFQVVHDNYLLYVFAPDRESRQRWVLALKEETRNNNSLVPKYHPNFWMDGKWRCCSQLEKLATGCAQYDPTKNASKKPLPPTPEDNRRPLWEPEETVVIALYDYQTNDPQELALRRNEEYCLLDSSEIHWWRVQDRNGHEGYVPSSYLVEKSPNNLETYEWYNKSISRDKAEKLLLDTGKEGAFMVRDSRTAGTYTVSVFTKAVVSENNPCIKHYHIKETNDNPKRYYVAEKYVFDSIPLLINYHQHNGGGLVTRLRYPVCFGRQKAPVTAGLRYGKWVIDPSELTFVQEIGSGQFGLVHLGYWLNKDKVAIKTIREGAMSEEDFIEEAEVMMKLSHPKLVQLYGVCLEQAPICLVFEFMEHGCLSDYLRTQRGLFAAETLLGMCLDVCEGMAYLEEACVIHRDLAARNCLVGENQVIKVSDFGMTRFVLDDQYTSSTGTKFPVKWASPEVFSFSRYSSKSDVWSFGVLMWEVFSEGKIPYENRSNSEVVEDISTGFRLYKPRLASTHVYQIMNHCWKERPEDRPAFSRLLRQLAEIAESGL
In short: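 Radiometric 33P incorporation into SAM68 peptide (D332-443) with filter capture and scintillation counting; 10 min pre-incubation then 10 min reaction at 25° C. IC50 format: 30 nM Itk, 15 μM ATP, 2 μM peptide, HEPES pH 7.5. Ki(app) format: 50 nM Itk, 7.5 μM ATP, 3 μM peptide, MOPS pH 7.0.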

c-Met = c-Met (Homo sapiens, UniProt P08581); assay: c-Met Inhibition Assay, coupled enzyme system; format: biochemical; details: enzyme inhibition data (Ki), Table 11
c-Met, sequence (P08581 25-1390): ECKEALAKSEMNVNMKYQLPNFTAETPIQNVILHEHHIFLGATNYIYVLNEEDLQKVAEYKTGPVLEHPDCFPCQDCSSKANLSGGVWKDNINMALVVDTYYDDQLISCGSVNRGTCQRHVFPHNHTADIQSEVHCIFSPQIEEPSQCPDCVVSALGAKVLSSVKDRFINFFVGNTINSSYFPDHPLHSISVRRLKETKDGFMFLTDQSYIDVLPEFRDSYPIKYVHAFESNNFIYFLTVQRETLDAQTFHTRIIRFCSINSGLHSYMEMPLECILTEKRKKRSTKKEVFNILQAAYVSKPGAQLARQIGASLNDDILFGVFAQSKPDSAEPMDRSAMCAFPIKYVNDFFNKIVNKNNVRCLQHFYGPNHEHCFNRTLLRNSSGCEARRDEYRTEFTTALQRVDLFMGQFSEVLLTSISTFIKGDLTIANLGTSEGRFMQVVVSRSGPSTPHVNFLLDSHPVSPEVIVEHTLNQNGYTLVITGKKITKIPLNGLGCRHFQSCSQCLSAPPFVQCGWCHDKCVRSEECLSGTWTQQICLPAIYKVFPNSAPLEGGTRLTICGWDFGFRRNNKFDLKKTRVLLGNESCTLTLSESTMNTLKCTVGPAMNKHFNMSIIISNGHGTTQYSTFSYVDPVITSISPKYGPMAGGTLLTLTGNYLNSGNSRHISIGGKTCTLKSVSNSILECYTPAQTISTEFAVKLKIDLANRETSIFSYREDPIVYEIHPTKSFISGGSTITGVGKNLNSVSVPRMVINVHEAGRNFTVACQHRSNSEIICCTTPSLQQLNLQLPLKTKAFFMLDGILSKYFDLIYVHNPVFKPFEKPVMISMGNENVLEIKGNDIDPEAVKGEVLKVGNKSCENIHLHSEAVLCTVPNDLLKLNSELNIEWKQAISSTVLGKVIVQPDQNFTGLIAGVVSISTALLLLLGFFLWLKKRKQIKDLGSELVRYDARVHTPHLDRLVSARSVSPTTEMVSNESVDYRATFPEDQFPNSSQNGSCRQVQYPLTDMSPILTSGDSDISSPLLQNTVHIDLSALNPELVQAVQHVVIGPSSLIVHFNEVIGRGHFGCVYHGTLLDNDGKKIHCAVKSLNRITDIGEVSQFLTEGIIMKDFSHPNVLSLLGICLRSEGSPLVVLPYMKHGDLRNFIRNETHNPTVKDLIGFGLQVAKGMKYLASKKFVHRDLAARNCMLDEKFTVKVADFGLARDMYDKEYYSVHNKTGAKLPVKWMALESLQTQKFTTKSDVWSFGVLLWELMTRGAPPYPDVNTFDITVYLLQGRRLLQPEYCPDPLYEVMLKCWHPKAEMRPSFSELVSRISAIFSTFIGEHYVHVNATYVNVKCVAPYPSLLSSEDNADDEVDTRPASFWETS
In short: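 Pyruvate kinase/lactate dehydrogenase-coupled NADH assay in HEPES pH 7.5 with 80 nM c-Met, 200 μM ATP and 10 μM polyGluTyr at 30° C. Compound (0.006–12.5 μM final, 12-point) preincubated 10 min before ATP start; rates over 10 min gave Ki.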

Structure (SMILES) | Ki (Itk) | Ki (c-Met)
CNCc1ccc(-c2cnc3c(-c4ccccn4)c(N)nn3c2)cc1 [Compound V-236] | < 500 nM | < 500 nM
Nc1nn2cc(-c3ccncc3)cnc2c1-c1cc(N2CCCCC2)ncn1 [Compound V-179] | < 500 nM | < 500 nM
Nc1nn2cc(-c3ccc4[nH]ccc4c3)cnc2c1-c1ccccn1 [Compound V-212] | < 500 nM | < 500 nM
CCN(CC)C(=O)c1ccc(-c2cnc3c(-c4ccccn4)c(N)nn3c2)nc1 [Compound V-98] | < 500 nM | < 500 nM
Nc1nn2cc(-c3cccc(C(=O)N4CCC(N)CC4)n3)cnc2c1-c1ccccn1 [Compound V-104] | 500 to 5000 nM | < 500 nM
CCN(CC)CCN(C)c1ccc(-c2cnc3c(-c4ccccn4)c(N)nn3c2)cn1 [Compound V-173] | < 500 nM | < 500 nM
Nc1nn2cc(-c3ccc(CO)cc3)cnc2c1-c1ccccn1 [Compound V-194] | < 500 nM | < 500 nM
CN(CCCN)C(=O)c1ccc(-c2cnc3c(-c4ccccn4)c(N)nn3c2)nc1 [Compound V-130] | < 500 nM | < 500 nM
CCN(CC)c1cc(-c2c(N)nn3cc(-c4ccncc4)cnc23)ncn1 [Compound V-180] | < 500 nM | < 500 nM

Continued, values first:

Ki (Itk) | Ki (c-Met) | Structure (SMILES)
500 to 5000 nM | < 500 nM | COCCNc1ccc(-c2cnc3c(-c4ccccn4)c(N)nn3c2)cn1 [Compound V-156]
500 to 5000 nM | < 500 nM | CCN1CCN(C(=O)c2cccc(-c3cnc4c(-c5ccccn5)c(N)nn4c3)n2)CC1 [Compound V-102]
< 500 nM | < 500 nM | Nc1nn2cc(-c3ccc(CN4CC[C@@H](N)C4)cc3)cnc2c1-c1ccccn1 [Compound V-231]
500 to 5000 nM | 500 to 5000 nM | COc1ccc(-c2cnc3c(-c4ccncc4)c(N)nn3c2)cc1 [Compound V-219]
< 500 nM | < 500 nM | Nc1nn2cc(-c3ccncc3)cnc2c1-c1cc(Nc2ccccc2)ncn1 [Compound V-241]
500 to 5000 nM | 500 to 5000 nM | COc1ccc(-c2cn3nc(N)c(-c4ccccn4)c3nc2C)cc1 [Compound V-216]
< 500 nM | < 500 nM | Nc1nn2cc(-c3ccc(CN4CC[C@H](N)C4)cc3)cnc2c1-c1ccccn1 [Compound V-233]
500 to 5000 nM | < 500 nM | Cc1ccc(-c2c(N)nn3cc(-c4ccncc4)cnc23)nc1 [Compound V-132]
< 500 nM | < 500 nM | Nc1nn2cc(-c3ccc(N4CCNCC4)nc3)cnc2c1-c1ccccn1 [Compound V-151]
500 to 5000 nM | < 500 nM | CN1CCCN(c2ccc(-c3cnc4c(-c5ccccn5)c(N)nn4c3)cn2)CC1 [Compound V-160]
500 to 5000 nM | 500 to 5000 nM | CNC(=O)c1cnc2c(-c3ccccn3)c(N)nn2c1 [Compound V-204]
